Converted amounts (≈) assume the structure as drawn. Marks after values point to notes of the source that are not given here. One block for each compound: values may come before it.
Tests used:
[1] = Weekly food intake of SHR rats; type: in vivo, rat
Summary of the method: (§1)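 Male and female SHR rats (200-250 g, 8/group) dosed intragastrically once daily for 8 weeks with test compounds at 60 or 120 mg/kg/d or captopril 27 mg/kg; Wistar and SHR controls received distilled water. Body weight and food intake observed during treatment.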

[2] = Weekly body weight of SHR rats; type: in vivo, rat
Summary of the method: as §1

[3] = tested on: spontaneously hypertensive rats (SHR); experiment: Caudal artery systolic pressure of spontaneously hypertensive rats, single administration; type: in vivo, rat; details: x ± s, n = 8
Summary of the method: (§2)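 SHR rats of both sexes (200–250 g, 8/group) dosed intragastrically with 60 or 120 mg/kg/d, or captopril 27 mg/kg, once daily for 8 weeks; Wistar rats and vehicle SHR served as controls. Tail-cuff systolic pressure taken as the mean of 3 readings, measured before dosing and 30–120 min after the first dose, or 30 min post-dose on days 1–56 for chronic treatment.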

[4] = tested on: spontaneously hypertensive rats (SHR); experiment: Caudal artery systolic pressure of spontaneously hypertensive rats, 8 weeks of continuous medication; type: in vivo, rat; details: x ± s, n = 8
Summary of the method: as §2

physchem = details: water, thermodynamic from solid
Method: (§3) Measuring method: samples are ground to obtain fine powder, target compounds are quantitatively weighed, the weighed compounds are added into purified water, and the solubility of the compounds is investigated by ultrasonics.

Water solubility test = details: purified water, thermodynamic from solid
Method: as §3

[5] = 60 mg/kg/d intragastric, week 0
[6] = 60 mg/kg/d intragastric, week 1
[7] = 60 mg/kg/d intragastric, week 2
[8] = 60 mg/kg/d intragastric, week 3
[9] = 60 mg/kg/d intragastric, week 4
[10] = 60 mg/kg/d intragastric, week 5
[11] = 60 mg/kg/d intragastric, week 6
[12] = 60 mg/kg/d intragastric, week 7
[13] = 60 mg/kg/d intragastric, week 8
[14] = 120 mg/kg/d intragastric, week 0
[15] = 120 mg/kg/d intragastric, week 1
[16] = 120 mg/kg/d intragastric, week 2
[17] = 120 mg/kg/d intragastric, week 3
[18] = 120 mg/kg/d intragastric, week 4
[19] = 120 mg/kg/d intragastric, week 5
[20] = 120 mg/kg/d intragastric, week 6
[21] = 120 mg/kg/d intragastric, week 7
[22] = 120 mg/kg/d intragastric, week 8
[23] = 60 mg/kg intragastric single administration, 30 min
[24] = 60 mg/kg intragastric single administration, 60 min
[25] = 60 mg/kg intragastric single administration, 90 min
[26] = 60 mg/kg intragastric single administration, 120 min
[27] = 60 mg/kg intragastric single administration, before administration
[28] = 120 mg/kg intragastric single administration, 30 min
[29] = 120 mg/kg intragastric single administration, 60 min
[30] = 120 mg/kg intragastric single administration, 90 min
[31] = 120 mg/kg intragastric single administration, 120 min
[32] = 120 mg/kg intragastric single administration, before administration
[33] = 60 mg/kg/d intragastric continuous, 1 d, 30 min after administration
[34] = 60 mg/kg/d intragastric continuous, 7 d, 30 min after administration
[35] = 60 mg/kg/d intragastric continuous, 13 d, 30 min after administration
[36] = 60 mg/kg/d intragastric continuous, 19 d, 30 min after administration
[37] = 60 mg/kg/d intragastric continuous, 25 d, 30 min after administration
[38] = 60 mg/kg/d intragastric continuous, 35 d, 30 min after administration
[39] = 60 mg/kg/d intragastric continuous, 49 d, 30 min after administration
[40] = 60 mg/kg/d intragastric continuous, 56 d, 30 min after administration
[41] = 60 mg/kg/d intragastric continuous, before administration
[42] = 120 mg/kg/d intragastric continuous, 1 d, 30 min after administration
[43] = 120 mg/kg/d intragastric continuous, 7 d, 30 min after administration
[44] = 120 mg/kg/d intragastric continuous, 13 d, 30 min after administration
[45] = 120 mg/kg/d intragastric continuous, 19 d, 30 min after administration
[46] = 120 mg/kg/d intragastric continuous, 25 d, 30 min after administration
[47] = 120 mg/kg/d intragastric continuous, 35 d, 30 min after administration
[48] = 120 mg/kg/d intragastric continuous, 49 d, 30 min after administration
[49] = 120 mg/kg/d intragastric continuous, 56 d, 30 min after administration
[50] = 120 mg/kg/d intragastric continuous, before administration

Compound: Cc1nc(C)c(CO[C@H]2C(=O)O[C@H]3O[C@]45C(=O)OC6C[C@@H](C(C)(C)C)C32[C@@]64[C@@H](O)[C@@H]2OC(=O)[C@@H](C)[C@@]25O)nc1C (stereo partly shown) [BM]
- Average dairy food intake [1, 5]: 18.2 g/day
- Average dairy food intake [1, 6]: 19.1^▴ g/d
- Average dairy food intake [1, 7]: 19.9^▴ g/d
- Average dairy food intake [1, 8]: 20.9^▴▴ g/d
- Average dairy food intake [1, 9]: 21.3^▴▴ g/d
- Average dairy food intake [1, 10]: 22.4^▴▴ g/d
- Average dairy food intake [1, 11]: 23.1^▴▴ g/d
- Average dairy food intake [1, 12]: 24.7^▴▴ g/d
- Average dairy food intake [1, 13]: 25.5^▴▴ g/d
- Average dairy food intake [1, 14]: 18.5 g/day
- Average dairy food intake [1, 15]: 19.9^▴ g/d
- Average dairy food intake [1, 16]: 20.7^▴▴ g/d
- Average dairy food intake [1, 17]: 22.6^▴▴ g/d
- Average dairy food intake [1, 18]: 22.9^▴▴ g/d
- Average dairy food intake [1, 19]: 23.7^▴▴ g/d
- Average dairy food intake [1, 20]: 24.4^▴▴ g/d
- Average dairy food intake [1, 21]: 25.8^▴▴ g/d
- Average dairy food intake [1, 22]: 27.6^▴▴ g/d
- Body weight [2, 5]: 231.5 g
- Body weight [2, 6]: 236.8 g
- Body weight [2, 7]: 245.7^▴▴ g
- Body weight [2, 8]: 253.4 g
- Body weight [2, 9]: 258.3 g
- Body weight [2, 10]: 263.5^▴ g
- Body weight [2, 11]: 271.3^▴▴ g
- Body weight [2, 12]: 281.6^▴▴ g
- Body weight [2, 13]: 292.5^▴▴ g
- Body weight [2, 14]: 233.4 g
- Body weight [2, 15]: 249.5^▴▴ g
- Body weight [2, 16]: 256.8^▴▴ g
- Body weight [2, 17]: 264.3^▴▴ g
- Body weight [2, 18]: 271.6^▴▴ g
- Body weight [2, 19]: 280.4^▴▴ g
- Body weight [2, 20]: 290.5^▴▴ g
- Body weight [2, 21]: 305.7^▴▴ g
- Body weight [2, 22]: 315.8^▴▴ g
- Systolic pressure [3, 23]: 156.21 ± 9.68 mmHg
- Systolic pressure [3, 24]: 152.06 ± 9.78 mmHg
- Systolic pressure [3, 25]: 151.74 ± 13.15 mmHg
- Systolic pressure [3, 26]: 152.52 ± 15.06 mmHg
- Systolic pressure [3, 27]: 166.27 ± 14.01 mmHg
- Systolic pressure [3, 28]: 149.04 ± 10.95 mmHg
- Systolic pressure [3, 29]: 151.58 ± 9.85 mmHg
- Systolic pressure [3, 30]: 153.65 ± 11.04 mmHg
- Systolic pressure [3, 31]: 151.00 ± 9.85 mmHg
- Systolic pressure [3, 32]: 163.45 ± 15.24 mmHg
- Systolic pressure [4, 33]: 155.25 ± 12.36 mmHg
- Systolic pressure [4, 34]: 154.85 ± 10.49 mmHg
- Systolic pressure [4, 35]: 153.26 ± 12.95 mmHg
- Systolic pressure [4, 36]: 156.74 ± 10.36 mmHg
- Systolic pressure [4, 37]: 154.75 ± 10.39 mmHg
- Systolic pressure [4, 38]: 151.48 ± 10.32 mmHg
- Systolic pressure [4, 39]: 151.17 ± 14.05 mmHg
- Systolic pressure [4, 40]: 154.64 ± 11.42 mmHg
- Systolic pressure [4, 41]: 166.27 ± 14.01 mmHg
- Systolic pressure [4, 42]: 154.62 ± 5.74 mmHg
- Systolic pressure [4, 43]: 152.31 ± 10.56 mmHg
- Systolic pressure [4, 44]: 151.58 ± 12.06 mmHg
- Systolic pressure [4, 45]: 153.06 ± 10.41 mmHg
- Systolic pressure [4, 46]: 148.54 ± 11.62 mmHg
- Systolic pressure [4, 47]: 149.36 ± 10.75 mmHg
- Systolic pressure [4, 48]: 150.32 ± 9.59 mmHg
- Systolic pressure [4, 49]: 149.78 ± 11.64 mmHg
- Systolic pressure [4, 50]: 163.45 ± 15.24 mmHg
- solubility (physchem): 250 µg/mL (≈ 448 µM)

- solubility (Water solubility test): 300 µg/mL (≈ 524 µM)
Compound: Cc1nc(C)c(C(=O)O[C@H]2C(=O)O[C@H]3O[C@]45C(=O)OC6C[C@@H](C(C)(C)C)C32[C@@]64[C@@H](O)[C@@H]2OC(=O)[C@@H](C)[C@@]25O)nc1C (stereo partly shown) [BZ]
- Average dairy food intake [1, 5]: 18.1 g/day
- Average dairy food intake [1, 6]: 19.5^▴ g/d
- Average dairy food intake [1, 7]: 19.7^▴ g/d
- Average dairy food intake [1, 8]: 20.4^▴▴ g/d
- Average dairy food intake [1, 9]: 20.9^▴▴ g/d
- Average dairy food intake [1, 10]: 21.7^▴▴ g/d
- Average dairy food intake [1, 11]: 22.9^▴▴ g/d
- Average dairy food intake [1, 12]: 24.0^▴▴ g/d
- Average dairy food intake [1, 13]: 24.9^▴▴ g/d
- Average dairy food intake [1, 14]: 18.0 g/day
- Average dairy food intake [1, 15]: 19.3^▴ g/d
- Average dairy food intake [1, 16]: 20.5^▴▴ g/d
- Average dairy food intake [1, 17]: 22.0^▴▴ g/d
- Average dairy food intake [1, 18]: 22.6^▴▴ g/d
- Average dairy food intake [1, 19]: 23.6^▴▴ g/d
- Average dairy food intake [1, 20]: 24.1^▴▴ g/d
- Average dairy food intake [1, 21]: 24.9^▴▴ g/d
- Average dairy food intake [1, 22]: 27.0^▴▴ g/d
- Body weight [2, 5]: 231.0 g
- Body weight [2, 6]: 235.7 g
- Body weight [2, 7]: 242.5 g
- Body weight [2, 8]: 251.6 g
- Body weight [2, 9]: 259.4^▴ g
- Body weight [2, 10]: 263.6^▴ g
- Body weight [2, 11]: 269.1^▴▴ g
- Body weight [2, 12]: 276.8^▴▴ g
- Body weight [2, 13]: 288.0^▴▴ g
- Body weight [2, 14]: 268.9 g
- Body weight [2, 15]: 249.4^▴▴ g
- Body weight [2, 16]: 256.7^▴▴ g
- Body weight [2, 17]: 262.4^▴▴ g
- Body weight [2, 18]: 268.9^▴▴ g
- Body weight [2, 19]: 280.7^▴▴ g
- Body weight [2, 20]: 291.3^▴▴ g
- Body weight [2, 21]: 305.4^▴▴ g
- Body weight [2, 22]: 320.9^▴▴ g
- Systolic pressure [3, 23]: 152.65 ± 10.48 mmHg
- Systolic pressure [3, 24]: 153.05 ± 16.39 mmHg
- Systolic pressure [3, 25]: 151.14 ± 10.87 mmHg
- Systolic pressure [3, 26]: 156.47 ± 12.47 mmHg
- Systolic pressure [3, 27]: 163.58 ± 10.36 mmHg
- Systolic pressure [3, 28]: 150.00 ± 9.15 mmHg
- Systolic pressure [3, 29]: 152.95 ± 9.26 mmHg
- Systolic pressure [3, 30]: 156.28 ± 13.95 mmHg
- Systolic pressure [3, 31]: 169.36 ± 10.63 mmHg
- Systolic pressure [3, 32]: 166.24 ± 12.14 mmHg
- Systolic pressure [4, 33]: 158.77 ± 11.06 mmHg
- Systolic pressure [4, 34]: 153.41 ± 14.08 mmHg
- Systolic pressure [4, 35]: 151.38 ± 9.47 mmHg
- Systolic pressure [4, 36]: 155.74 ± 10.62 mmHg
- Systolic pressure [4, 37]: 154.94 ± 9.64 mmHg
- Systolic pressure [4, 38]: 150.95 ± 5.04 mmHg
- Systolic pressure [4, 39]: 155.06 ± 6.37 mmHg
- Systolic pressure [4, 40]: 153.95 ± 14.01 mmHg
- Systolic pressure [4, 41]: 163.58 ± 10.36 mmHg
- Systolic pressure [4, 42]: 154.69 ± 9.85 mmHg
- Systolic pressure [4, 43]: 153.74 ± 10.24 mmHg
- Systolic pressure [4, 44]: 150.39 ± 10.39 mmHg
- Systolic pressure [4, 45]: 149.72 ± 9.83 mmHg
- Systolic pressure [4, 46]: 149.02 ± 8.26 mmHg
- Systolic pressure [4, 47]: 151.72 ± 10.47 mmHg
- Systolic pressure [4, 48]: 153.42 ± 12.04 mmHg
- Systolic pressure [4, 49]: 148.62 ± 9.73 mmHg
- Systolic pressure [4, 50]: 166.24 ± 12.14 mmHg

From patent US10875874B2, “Ginkgolide B derivative and preparation method and use thereof” (Chengdu Baiyu Ginkgolide Pharmaceuticals Co., Ltd., priority 2015, dated 2020)
